Assays:
SW480 cells = assay: Sulforhodamine B (SRB) cell viability assay, SW480; format: cell-based; settings: Homo sapiens, CRC cell line, 48 h, read-out: IC50 (μM) ± SD, SW480
Experimental: The cells were allowed to adhere overnight, from 12 h to 18 h, and then treated with increasing concentrations of each compound, C9, A36, and A42 (0.125 μM, 0.25 μM, 0.5 μM, 1 μM, 2.5 μM, and 5 μM), in their respective culture mediums for 48 h. In addition to a negative control that consisted only of cells and growth medium, a negative control containing the highest concentration of the solvent in which the compound was dissolved (DMSO 0.1%) was also used. The SRB assay was performed according to Marques et al.. The IC50 values were obtained using GraphPad Prism version 8.2.1 through the application of a sigmoidal dose–response nonlinear regression, after logarithmic transformation. The selectivity index was determined by dividing the IC50 value of the non-neoplastic BJ-5ta cell line by the IC50 value of the cancer cell lines (IC50 BJ-5ta/IC50 cancer cell line); furthermore, for the CRC model, a second selectivity index was also determined using the non-neoplastic NCM460 cell line (IC50 NCM460/IC50 CRC cell line). According to the results of the selectivity index, the cell line with the highest selectivity value for each of the models, CRC and breast, was selected for subsequent characterization.
Three CRC-derived cell lines, SW480 (KRAS^G12V), HCT116 (KRAS^G13D), and RKO (BRAF^V600E), harboring somatic mutations on KRAS or BRAF, and two breast-cancer-derived cell lines, MDA-MB-231 (basal like) and MCF7 (luminal A subtype), together with two non-neoplastic cell lines, NCM460 (normal colon mucosal epithelial cell line) and BJ-5ta (normal foreskin fibroblast cell line), were used to study the activity and selectivity of the three new benzo[a]phenoxazine compounds, C9, A36, and A42. All cell lines were treated with a range of drug concentrations (0.125 μM, 0.25 μM, 0.5 μM, 1 μM, 2.5 μM, and 5 μM) for 48 h, and the effect on cell viability was assessed using a sulforhodamine B assay (SRB) (Figure 2). […] In addition, the selectivity index was determined using the BJ-5ta cell line as a reference, as well as the NCM460 cell line for the CRC model (Table 1).

RKO cells [1] = assay: Annexin V/PI assay (flow cytometry), RKO; format: cell-based, human; settings: 2 × IC50 and 4 × IC50, 48 h
Experimental: RKO and MCF7 cells were seeded in 12-well plates at a density of 1 × 10^5 cells/mL. After 24 h, the cells were treated with C9, A36, and A42 at 2 × IC50 and 4 × IC50 concentrations or 0.1% DMSO (vehicle). Untreated cells were used as controls. After 48 h, floating and adherent cells were collected. The cells were resuspended in […] of binding buffer and treated for 15 min in the dark with 5 μL of Annexin V-FITC (Detection Kit-ab14085) and 5 μL of Propidium Iodide (50 μg/mL). The samples were subjected to flow cytometry analysis, PI fluorescence was detected using the ECD-A channel, and Annexin V fluorescence was detected using the FITC-A channel.
One of the main goals of clinical oncology is the development of compounds and treatments capable of selectively eliminating cancer cells. In this sense, we next evaluated the capability of the compounds to induce cell death in both cell lines. For this, we performed a flow cytometry analysis using annexin V-FITC and propidium iodide PI double staining. The conjugation of these two probes allowed for the discrimination of viable (negative for both), early apoptotic (annexin + and PI−), late apoptotic (annexin+ and PI+), and necrotic (annexin− and PI+) cells. […] Both flouting and attached cells were harvested and double stained.

RKO cells [2] = assay: Intracellular pH evaluation (BCECF-AM, flow cytometry), RKO; format: cell-based, human; settings: 2 × IC50 and 4 × IC50, 48 h
Experimental: Evaluations of the intracellular pHs (pHi) of the RKO and MCF7 cells were performed through a flow cytometry optimized protocol using the pH-sensitive probe BCECF-AM. RKO and MCF7 cells were seeded in 12-well plates at a density of 1 × 10^5 cells/mL. After 24 h, the cells were treated with the compounds C9, A36, and A42 at 2 × IC50 and 4 × IC50 concentrations or 0.1% DMSO (vehicle). As a control, untreated cells were used. Attached and floating cells were collected, washed, and then resuspended in Hank’s balanced salt solution (HBSS) after a 48 h treatment period. After that, the cells were stained with 1 μM of BCECF-AM for 30 min at 37 °C. The samples were analyzed by flow cytometry. The FITC-A and PE-A channels were used to detect the fluorescence mean of BCECF-AM.
To further support LMP’s role in cell death induction, we investigated the effects of the compounds on intracellular pH (pHi), as LMP induction is associated with an increase in cytosolic proton levels and, as a result, a reduction in intracellular pH [67, 68, 69]. We used the dual-emission ratiometric pH-sensitive probe BCECF-AM, which emits fluorescence based on pHi. The result of acidification was shown by a decrease in the fluorescence ratio between BCECF-AM green (FITC-FL1) and red fluorescence (PE-FL2) (FL1/FL2). […]

CCCNc1cc2oc3cc(=NCC)c(C)cc-3nc2c2ccccc12 [C9]
IC50 (SW480 cells): 0.78 ± 0.09 µM
Cell death induction (Annexin V/PI) (RKO cells [1]): most powerful compounds
Intracellular acidification (BCECF-AM FL1/FL2 ratio) (RKO cells [2]): most pronounced effect

Reference: paper PMC11352945, “Anticancer Activity of Benzo[a]phenoxazine Compounds Promoting Lysosomal Dysfunction” (Cells, 2024)
